From paper PMC7822874, “Chemoprotective antimalarials identified through quantitative high-throughput screening of Plasmodium blood and liver stage parasites” (Scientific Reports, 2021)
Values joined by “and” are separate entries in the source; they are usually repeats but may differ in a detail not shown here. Equal values may be shown once. Read-outs that look alike come from different tables or passages of the source.

Columns and labels:
in vitro [1] = conditions: human, hepg2-a16-cd81egfp cells, % viability
[2] = tested on: Plasmodium falciparum Dd2 asexual blood stage parasites; test: microbe, parasite or virus in culture; parameters: species or system Plasmodium falciparum Dd2 in human erythrocytes; single determination (one 11-point concentration-response curve); conditions: Plasmodium falciparum, DD2, Erythrocyte, 72 h; read-out: AC50
[3] = tested on: T1, Plasmodium falciparum Dd2-attB (parental line), asexual blood stages; test: microbe, parasite or virus in culture; parameters: replicate k of 3 (each line is one of three independent assays; the three lines of one compound and parasite line follow each other); conditions: n = 1; for Individual replicates / Log AC50 (M): 72 h; for AC50: Plasmodium falciparum, DD2, 72 h, read-out: Individual replicates / Log AC50 (converted)
T1 construct: Dd2-attB, the isogenic parental line
Summary of the method: (§1)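 Three independent runs, compound subset only; parental vs ScDHODH line compared by two-sided Student's t-test.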

[4] = tested on: T2, Plasmodium falciparum Dd2-attB-ScDHODH (transgenic line expressing yeast DHODH), asexual blood stages; test: organism not typed; parameters: replicate k of 3 (each line is one of three independent assays; the three lines of one compound and parasite line follow each other); conditions: 72 h, n = 1; for AC50: read-out: Individual replicates / Log AC50 (converted)
T2 construct: Dd2-attB-ScDHODH, the transgenic line that expresses yeast DHODH
Summary of the method: as §1

[5] = tested on: P. berghei-ANKA-GFP-LucCON liver stage parasites in HepG2-A16-CD81EGFP cells; test: P. berghei liver stage Pb-Luc assay, Method 1 (UCSD, 1536-well); assay type: cell-based, Plasmodium berghei; conditions: for activity at 1 µM / activity at 3 µM: 48 h, average of 2 wells, 1536-well plate; for activity at 1 µM: nominal 1 uM (10 mM stock), […] for 15 mM, 1.2 uM for 12 mM, 2 uM for 20 mM stock; for activity at 3 µM: nominal 3 uM (10 mM stock), 4.5 uM for 15 mM, 3.6 uM for 12 mM, 6 uM for 20 mM stock
HepG2-A16-CD81EGFP cells = conditions: average of 2 wells, repeat 2
in vitro [6] = conditions: human, HepG2-A16-CD81EGFP cells, uninfected

**Q.** For `CCOC(=O)C1CCN(Cc2cc(Cl)c3ccccc3c2O)CC1` [MLS001171913], which viability at 3 µM (in vitro [1]) is on record?
**A.** The viability at 3 µM was 87.1%.

**Q.** For `CCCCCCCc1c(C)[nH]c(N2CCOCC2)nc1=O` [MLS000531187], which viability at 3 µM (in vitro [1]) is on record?
**A.** Its viability at 3 µM is 90.5%.

**Q.** Which viability at 3 µM (in vitro [1]) does the source give for `CCOc1ccc(C(=O)Nc2ccc(-c3nc4ccccc4[nH]3)cc2)cc1[N+](=O)[O-]` [MLS000577721] here?
**A.** The viability at 3 µM was 101%.

**Q.** Which viability at 3 µM (in vitro [1]) does the source give for `O=C1c2ccccc2-n2c1nc1ccccc1c2=O` [MLS001049121] here?
**A.** Its viability at 3 µM is 81.6%.

**Q.** Which viability at 3 µM (in vitro [1]) does the source give for `Oc1cccc(Nc2nc(NCC3CCCO3)c3ccccc3n2)c1` (centres unmarked) [MLS000026845] here?
**A.** Its viability at 3 µM is 95.5%.

**Q.** For `Oc1c(C(Nc2nccs2)c2ccc(C(F)(F)F)cc2)ccc2cccnc12` (centres unmarked) [MLS000774842], which viability at 3 µM (in vitro [1]) is on record?
**A.** The viability at 3 µM was 43.8%.

**Q.** With `Cc1ccccc1C1C(C#N)=C2N=C(N)c3c(sc4c3CCCCC4)N2C2=C1C(=O)CCC2` (centres unmarked) [MLS000543544] as the compound, how does the viability at 3 µM (in vitro [1]) read?
**A.** The viability at 3 µM was 92.6%.

**Q.** For `CN(CC(=O)Nc1cccc(F)c1)C(=O)c1ccc(-c2ccc(Cl)cc2)o1` [MLS001078811], which viability at 3 µM (in vitro [1]) is on record?
**A.** Its viability at 3 µM is 105%.

**Q.** For `COc1ccc2[nH]c(C)c(CCN(Cc3cccs3)C(S)=Nc3ccccc3)c2c1` [MLS000529828], which viability at 3 µM (in vitro [1]) is on record?
**A.** Its viability at 3 µM is 86.8%.

**Q.** With `O=C(Nc1cccnc1)c1cn(-c2ccccc2)nc1-c1cccs1` [MLS000081870] as the compound, how does the viability at 3 µM (in vitro [1]) read?
**A.** Its viability at 3 µM is 100%.

**Q.** With `Cc1cc(O)c(-c2cc(C(=O)Nc3ccc(S(=O)(=O)N4CCOCC4)cc3)[nH]n2)cc1C` [MLS000042703] as the compound, how does the viability at 3 µM (in vitro [1]) read?
**A.** The viability at 3 µM was 93.1%.

**Q.** With `CCN(CC)CCOC(=O)c1ccc(N/C=C(/C#N)c2nc(-c3cc4ccccc4oc3=O)cs2)cc1` [MLS001164950] as the compound, how does the viability at 3 µM (in vitro [1]) read?
**A.** Its viability at 3 µM is 105%.

**Q.** Which viability at 3 µM (in vitro [1]) does the source give for `Cc1cc(C)c(C)c(S(=O)(=O)NCc2ccc(C(=O)N3CCCCC3)cc2)c1C` [MLS000547926] here?
**A.** Its viability at 3 µM is 90.2%.

**Q.** Which viability at 3 µM (in vitro [1]) does the source give for `OCCCNc1cc(-c2ccnc(Nc3cccc(Cl)c3)n2)ccn1` [NCGC00346940] here?
**A.** The viability at 3 µM was 8.46%.

**Q.** With `Cc1cc(C)cc(C(=O)Nc2ccc3c(N4CCCC4)ncnc3c2)c1` [NCGC00425487] as the compound, how does the viability at 3 µM (in vitro [1]) read?
**A.** Its viability at 3 µM is 31.8%.

**Q.** For `CCc1c(C)c(C#N)c2nc3ccccc3n2c1NCC1CCCO1` (centres unmarked) [MLS000556827], which viability at 3 µM (in vitro [1]) is on record?
**A.** The viability at 3 µM was 99.5%.

**Q.** With `CN1CCc2cccc3c2[C@@H]1Cc1ccc(O)c(O)c1-3` [NCGC00142462] as the compound, how does the viability at 3 µM (in vitro [1]) read?
**A.** Its viability at 3 µM is 93.3%.

**Q.** What does the source list for `Oc1ccc(CNc2ccc(C(F)(F)F)cc2Cl)c2cccnc12` [NCGC00183375-01]?
**A.** AC50 [2]: 10.6 µM; Individual replicates / Log AC50 (M) [3]: -5.2986 Log AC50 (M) and -5.3486 Log AC50 (M); AC50 [3]: 5.03 µM; Individual replicates / Log AC50 (M) [4]: -5.2486 Log AC50 (M) and -5.0986 Log AC50 (M); AC50 [4]: 5.03 µM

**Q.** For `COc1ccccc1C1CC(c2ccccc2)=NN1C(=O)c1ccccc1` (centres unmarked) [MLS001197331], which viability at 3 µM (in vitro [1]) is on record?
**A.** Its viability at 3 µM is 96.5%.

**Q.** With `COc1cc2nc(SCc3ccc(F)cc3)n3nc(CCn4c(C)nc5ccccc54)nc3c2cc1OC` [NCGC00108638] as the compound, how does the viability at 3 µM (in vitro [1]) read?
**A.** Its viability at 3 µM is 107%.

**Q.** For `CCCN1C(CC(C)C)=N[S+](=O)([O-])c2cc(NC(=O)c3cccs3)ccc21` [NCGC00473217-01], which “Max Resp (signal direction of the dose response)” value ([5]; Method 1, Decrease = decreasing P. berghei viability with dose, Increase = increasing signal, Inactive = no dose response) is on record?
**A.** The value was “Decrease”.

**Q.** And the AC50 ([5]; Method 1, Hill fit, 50% of maximum activity response, read-out: AC50)?
**A.** Its AC50 is 0.00316 µM.

**Q.** And the “Log AC50 (M)” value ([5]; Method 1, log10 of molar AC50 from Hill fit)?
**A.** Its value is -8.500 M.

**Q.** And the activity at 1 µM ([5]; Plasmodium berghei, repeat 1, read-out: Pb-Luc signal, 1 uM, repeat 1)?
**A.** The activity at 1 µM was 8.62%.

**Q.** What about the activity at 1 µM ([5]; Plasmodium berghei, repeat 2, read-out: Pb-Luc signal, 1 uM, repeat 2) of the same compound?
**A.** The activity at 1 µM was 7.89%.

**Q.** What about the activity at 1 µM ([5]; Plasmodium berghei, repeat 3, read-out: Pb-Luc signal, 1 uM, repeat 3) of the same compound?
**A.** The activity at 1 µM was 4.31%.

**Q.** And the activity at 3 µM ([5]; Plasmodium berghei, repeat 1, read-out: Pb-Luc signal, 3 uM, repeat 1)?
**A.** Its activity at 3 µM is 2.42%.

**Q.** What about the activity at 3 µM ([5]; Plasmodium berghei, repeat 2, read-out: Pb-Luc signal, 3 uM, repeat 2) of the same compound?
**A.** Its activity at 3 µM is 3.74%.

**Q.** What about the activity at 3 µM ([5]; Plasmodium berghei, repeat 3, read-out: Pb-Luc signal, 3 uM, repeat 3) of the same compound?
**A.** The activity at 3 µM was 3.33%.

**Q.** What about the AC50 ([5]; Plasmodium berghei, Method 1, Hill fit, 50% of maximum activity response, read-out: AC50) of the same compound?
**A.** Its AC50 is 0.00282 µM.

**Q.** What about the AC50 ([5]; Plasmodium berghei, Method 1, log10 of molar AC50 from Hill fit, read-out: Log AC50 (converted)) of the same compound?
**A.** The AC50 was 0.00282 µM.

**Q.** And the AC50 [2]?
**A.** Its AC50 is 0.335 µM.

**Q.** And the “HepG2 viability signal, 1 uM, repeat 2” value (HepG2-A16-CD81EGFP cells; nominal 1 uM (10 mM stock), […] for 15 mM, 1.2 uM for 12 mM, 2 uM for 20 mM stock)?
**A.** The value was 104.11%.

**Q.** What about the “HepG2 viability signal, 3 uM, repeat 2” value (HepG2-A16-CD81EGFP cells; nominal 3 uM (10 mM stock), 4.5 uM for 15 mM, 3.6 uM for 12 mM, 6 uM for 20 mM stock) of the same compound?
**A.** Its value is 105.41%.

**Q.** And the “Individual replicates / Log AC50 (M)” value [3]?
**A.** Its value is -7.2986 Log AC50 (M) and -6.9486 Log AC50 (M) and -6.9986 Log AC50 (M).

**Q.** What about the “Individual replicates / Log AC50 (M)” value [4] of the same compound?
**A.** The value was -6.2986 Log AC50 (M).

**Q.** What about the AC50 [4] of the same compound?
**A.** The AC50 was 0.71 µM.

**Q.** And the viability at 48 h, 1 µM (in vitro [6])?
**A.** The viability at 48 h, 1 µM was 105%.

**Q.** What about the viability at 48 h, 3 µM (in vitro [6]) of the same compound?
**A.** The viability at 48 h, 3 µM was 106%.

**Q.** Which “Individual replicates / Log AC50 (M)” value [3] does the source give for `CN(C)c1cnc2c(O)ccc(C(=O)O)c2c1` [NCGC00189499-01] here?
**A.** Its value is -4.7486 Log AC50 (M).

**Q.** What about the AC50 [3] of the same compound?
**A.** Its AC50 is 14.2 µM.

**Q.** What about the “Individual replicates / Log AC50 (M)” value [4] of the same compound?
**A.** Its value is -4.9486 Log AC50 (M).

**Q.** What about the AC50 [4] of the same compound?
**A.** The AC50 was 14.2 µM.

**Q.** Which “Individual replicates / Log AC50 (M)” value [3] does the source give for `Cc1ccc(C(CCN2CCCCC2)c2cc3cccc(C(=O)O)c3[nH]2)cc1` (centres unmarked) [NCGC00389137-01] here?
**A.** Its value is -5.5486 Log AC50 (M) and -5.3986 Log AC50 (M) and -5.1486 Log AC50 (M).

**Q.** What about the “Individual replicates / Log AC50 (M)” value [4] of the same compound?
**A.** Its value is -5.3486 Log AC50 (M) and -5.0486 Log AC50 (M).

**Q.** With `O=C(Nc1ccccc1F)c1ccc(Cn2nc(N3CCN(c4ccccc4)CC3)ccc2=O)o1` [NCGC00127944-02] as the compound, how does the “Individual replicates / Log AC50 (M)” value [3] read?
**A.** Its value is -5.1486 Log AC50 (M) and -5.0986 Log AC50 (M).

**Q.** And the AC50 [3]?
**A.** The AC50 was 7.97 µM.

**Q.** What about the “Individual replicates / Log AC50 (M)” value [4] of the same compound?
**A.** Its value is -5.0986 Log AC50 (M) and -5.0486 Log AC50 (M).

**Q.** And the AC50 [4]?
**A.** The AC50 was 8.94 µM.
